Holding throughout (assay type): cell-based, human
The subject of assay [1] is FLIP. Briefly: Total FLIP protein (western blot). The protocol: Western Blot Analysis. Total cell lysates were prepared using RIPA lysis buffer (Sigma) containing 150 mM sodium chloride, 1.0% Triton X-100, 0.5% sodium deoxycholate, 0.1% sodium dodecyl sulfate (SDS) and 50 mM Tris, pH 8.0 plus a 1× cocktail of protease inhibitors (Protease Inhibitor Cocktail Set I, Calbiochem). Cells were lysed for 30 minutes at 4° C. followed by centrifugation for 10 minutes at 10,000 rpm at 4° C. Protein concentrations were determined using BCA protein assay (Pierce). A 35 μg protein aliquot was mixed with 4× Laemmli's SDS sample buffer (0.02% Bromophenol Blue (BPB), 8% Beta-mercaptoethanol (BME), 8% SDS, 40% glycerol and 250 mM Tris-HCl, pH 6.8). Cell lysates were heated for five minutes at 100° C., resolved by 12% SDS-polyacrylamide gel electrophoresis (SDS-PAGE) and transferred to polyvinylidene fluoride (PVDF) membrane. The membrane was blocked with 5% non-fat milk or 5% BSA for ≥1 hour and incubated with primary antibodies for PARP and caspase 8 (Cell Signaling). After incubation, the membrane was incubated with secondary anti-rabbit or mouse horseradish peroxidase (HRP)-conjugated antibodies (Biorad). Proteins were visualized through development by enhanced chemiluminescence (ECL 2 Western Blotting Substrate, Pierce) and exposure on X-ray film. The blots were reprobed for β-actin to confirm equal protein loading.
(§1) Western Blot Analysis. Total cell lysates were analyzed for levels of PARP, caspase 8, caspase 3, Bid, caspase 9, caspase 6, caspase 7, FLIP, DR4 and DR5 and the cytosolic cellular fraction was analyzed for cytochrome C (Cell Signaling) using previously described western blotting techniques.
(A western blot detects proteins with antibodies after separation by electrophoresis.)

Assay [2] has as its system rhTRAIL-resistant malignant melanomas. The experiment in a line: Western blot of co-treatment with general caspase inhibitor Z-VAD-FMK. Particulars: Z-VAD-FMK added to rhTRAIL plus quercetin. As for the experimental part:
(§2) Western Blot Analysis. Total cell lysates were prepared using RIPA lysis buffer (Sigma) containing 150 mM sodium chloride, 1.0% Triton X-100, 0.5% sodium deoxycholate, 0.1% sodium dodecyl sulfate (SDS) and 50 mM Tris, pH 8.0 plus a 1× cocktail of protease inhibitors (Protease Inhibitor Cocktail Set I, Calbiochem). Cells were lysed for 30 minutes at 4° C. followed by centrifugation for 10 minutes at 10,000 rpm at 4° C. Protein concentrations were determined using BCA protein assay (Pierce). A 35 μg protein aliquot was mixed with 4× Laemmli's SDS sample buffer (0.02% Bromophenol Blue (BPB), 8% Beta-mercaptoethanol (BME), 8% SDS, 40% glycerol and 250 mM Tris-HCl, pH 6.8). Cell lysates were heated for five minutes at 100° C., resolved by 12% SDS-polyacrylamide gel electrophoresis (SDS-PAGE) and transferred to polyvinylidene fluoride (PVDF) membrane. […]
as §1
Post treatment cells were collected and analyzed for induction of apoptosis through Annexin-V and PI staining and western blotting probing for key proteins in the apoptotic pathways (FIG. 4). […]

The subject of assay [3] is MeWo. Briefly: Apoptosis assay (FITC-Annexin-V and PI staining, FACS). Particulars: quercetin alone at 25 and 50 μM. As for the experimental part:
(§3) Cell Culture. Cells were incubated in a 90% humidified atmosphere with 5% CO2 at 37° C. Human adult primary epidermal melanocytes (ATCC PCS-200-013) were maintained in Dermal Cell Basal Medium supplemented with an Adult Melanocyte Growth kit (ATCC PCS-200-042) and 1% Antibiotic/Antimycotic Solution. The malignant melanoma cell lines, A375 (ATCC CRL-1619), WM9 and WM164 were maintained in DMEM and MeWo (ATCC HTB-65) was maintained in RPMI, both supplemented with 10% Fetal Bovine Serum (FBS) and 1% Antibiotic/Antimycotic Solution. WM9 and WM164 were a kind gift from Dr. Daniel J. Lindner from the Cleveland Clinic Foundation, Cleveland, Ohio Malignant melanoma lines are derived from patient tumors. A375 was derived from an epithelial skin biopsy. MeWo, WM9 and WM164 are metastatic malignant melanomas isolated from the lymph nodes.
(§4) Apoptosis Assay. Cells were trypsinized, harvested, washed twice with cold PBS and resuspended in 100 μl of Annexin-V binding buffer at a concentration of 1×10^3 cells/μl. According to manufacturer's protocol, cells were incubated with 5 μl of FITC-Annexin-V and propidium iodide (PI) for 15 minutes at room temperature in the dark (FITC-Annexin-V Kit Apoptosis Detection Kit I, BD Pharminogen). Stained cells were analyzed on BD FACS Canto II using Diva software. Single color controls (Annexin-V or PI only) were used to set up compensation and quadrants for FACS.
(§5) Melanoma rhTRAIL-Sensitivity: To test rhTRAIL-sensitivity, malignant melanoma lines were treated with and without 100 ng/ml of rhTRAIL for 72 hours. Prior to treatment, control experiments were done to determine the optimal conditions for rhTRAIL-treatment (data not shown). The treatment of 100 ng/ml for 72 hours was selected to best distinguish between rhTRAIL-sensitive and rhTRAIL-resistant melanomas. Post-treatment cells were analyzed for induction of apoptosis through FITC-Annexin-V and PI staining followed by FACS analysis (FIGS. 2A & 2B). […]

For assay [4], the system named is WM164. The assay is described as above. The protocol: as §3, §4, §5
The test system of assay [5] is MeWo. Briefly: Western blot of apoptotic cascade (PARP, caspases, Bid, cytochrome c). As to conditions: quercetin alone at 25 and 50 μM. The protocol:
as §2, with “6.8).” for “6.8). Cell lysates were heated for five minutes at 100° C., resolved by 12% SDS-polyacrylamide gel electrophoresis (SDS-PAGE) and transferred to polyvinylidene fluoride (PVDF) membrane.”
(§6) Melanoma rhTRAIL-Sensitivity: To test rhTRAIL-sensitivity, malignant melanoma lines were treated with and without 100 ng/ml of rhTRAIL for 72 hours. […] Post-treatment cells were analyzed for induction of apoptosis through FITC-Annexin-V and PI staining followed by FACS analysis (FIGS. 2A & 2B).
(§7) Western Blot Analysis. Total cell lysates were analyzed for levels of PARP, caspase 8, caspase 3, Bid, caspase 9, caspase 6, caspase 7, FLIP, DR4 and DR5 and the cytosolic cellular fraction was analyzed for cytochrome C (Cell Signaling) using previously described western blotting techniques. […]

In assay [6] the test system is WM164. The description is as above. Particulars: WM164, quercetin alone at 25 and 50 μM. As for the experimental part: as §2, with “6.8).” for “6.8). Cell lysates were heated for five minutes at 100° C., resolved by 12% SDS-polyacrylamide gel electrophoresis (SDS-PAGE) and transferred to polyvinylidene fluoride (PVDF) membrane.”
as §6, §7

The test system of assay [7] is DR4. Briefly: Death receptor membrane expression (anti-DR4-PE staining, FACS). The protocol:
(§8) Death Receptor Membrane Expression. Untreated and rhTRAIL-treated cells were collected with enzyme-free phosphate-buffered saline (PBS)-based cell dissociation buffer (Gibco Life Technologies) and stained with mouse anti-human DR4 or DR5 conjugated to phycoerythrin (PE) (eBioscience). Briefly, 0.25×10^6 cells were incubated in 100 μl of staining buffer (2% FBS and 0.02% sodium azide in PBS) and 5 μl anti-DR4 or anti-DR5 for one hour on ice in the dark. As a negative control to account for non-specific antibody binding, all four melanoma lines were stained with mouse IgG1κ, the same antibody isotype as DR4 and DR5, under the same conditions. After incubation, cells were washed twice with staining buffer and resuspended in 500 μl of staining buffer and analyzed on BD FACS Canto II using Diva software (BD Bioscience, San Jose, Calif.). Death Receptor Membrane Expression. The cell surface expression of DR4 and DR5 were determined according to previously described methods. For the permeabilization experiments, after the first antibody incubation cells were fixed in 4% paraformaldehyde for 10 minutes at room temperature and permeabilized with 0.1% saponin for 5 minutes at room temperature. Cells were then incubated with anti-IgG1κ, DR4 or DR5 for 30 minutes in the saponin buffer and analyzed by FACS. To calculate the cytoplasmic DR expression, […].

Assay [8] has as its system DR5. The experiment in a line: Death receptor membrane expression (anti-DR5-PE staining, FACS). As for the experimental part: as §8
Assay [9] relates to DR4. The experiment in a line: Total DR4 protein (western blot). As for the experimental part: as §2, with “membrane. The membrane was blocked with 5% non-fat milk or 5% BSA for ≥1 hour and incubated with primary antibodies for PARP and caspase 8 (Cell Signaling).” for “membrane.”
as §1

For assay [10], the system named is DR4. Briefly: DR4 mRNA (reverse transcription-PCR). As for the experimental part:
(§9) Reverse Transcription-PCR. Total RNA was extracted using TRIzol reagent (Ambion) and treated with DNase according to manufacturer's protocol (Invitrogen Deoxyribonuclease I, Amplification Grade). RT-PCR was performed following the manufacturer's protocol (Invitrogen SuperScript III One-Step RT-PCR System with Platinum® Taq DNA Polymerase). Human DR5 mRNA was amplified using the forward primer 5′-[…]-3′ and the reverse primer 5′-[…]-3′. For DR4, forward primer 5′-GAGCAACGCAGACTCGCT-3′ and the reverse primer 5′-TCACTCCAAGGACACGGC-3′ were used. For FLIP, forward primer 5′-[…]-3′ and the reverse primer 5′-[…]-3′ were used. For β-actin, the forward primer 5′-[…]-3′ and the reverse primer 5′-[…]-3′ were used. cDNA synthesis was performed at 60° C. for 30 minutes using the Applied Biosystems GeneAmp PCR System 9700. The PCR cycling conditions (30 cycles) were as follows: denature for 2 minutes at 94° C., anneal for 30 seconds at 55° C. for FLIP and DR4 and 65° C. for DR5 and β-actin, extend for 1 minute and 30 seconds at 68° C., and execute a final extension for 10 minutes at 68° C. Reaction products were analyzed on 1.2% agarose gels. The bands were visualized by ethidium bromide and an UV.

The test system of assay [11] is DR5. Briefly: Total DR5 protein (western blot). The protocol:
as §2, with “membrane. The membrane was blocked with 5% non-fat milk or 5% BSA for ≥1 hour and incubated with primary antibodies for PARP and caspase 8 (Cell Signaling).” for “membrane.”
as §1

The subject of assay [12] is DR5. The experiment in a line: DR5 mRNA (reverse transcription-PCR). As for the experimental part: as §9
Assay [13] deals with DR4. Briefly: Cytoplasmic DR4 expression (permeabilization, FACS). The protocol:
Death Receptor Membrane Expression. The cell surface expression of DR4 and DR5 were determined according to previously described methods. For the permeabilization experiments, after the first antibody incubation cells were fixed in 4% paraformaldehyde for 10 minutes at room temperature and permeabilized with 0.1% saponin for 5 minutes at room temperature. Cells were then incubated with anti-IgG1κ, DR4 or DR5 for 30 minutes in the saponin buffer and analyzed by FACS. To calculate the cytoplasmic DR expression, […].

In assay [14] the test system is FLIP. The experiment in a line: FLIP mRNA (reverse transcription-PCR). The protocol:
as §9

[15] abbreviates: MeWo, post-treatment with quercetin.
Where [16] appears, read: WM164, post-treatment with quercetin.

Residues, ends and D or L forms follow the SMILES beside them. *: point of attachment. Cbz = O=C(OCc1ccccc1)*; CH2F = FC*

On to `CC(C)C[C@@H](C=O)NC(=O)[C@H](CC(C)C)NC(=O)[C@H](CC(C)C)NC(=O)OCc1ccccc1` [MG132, reference compound] (Cbz-Leu-Leu-Leu-aldehyde), for which the “effect of proteasome inhibitor on quercetin-mediated FLIP downregulation (total FLIP protein)” value in the assay with FLIP [1] (co-treatment with quercetin) is “the downregulation of FLIP was prevented”.
`COC(=O)C[C@H](NC(=O)[C@H](C)NC(=O)[C@@H](NC(=O)OCc1ccccc1)C(C)C)C(=O)CF` [Z-VAD-FMK] (Cbz-Val-Ala-Asp(OMe)-CH2F): the “effect on induction of apoptosis (PARP cleavage, caspase 3 activation) in the co-treatment group” value in assay [2] is “blocked the induction of apoptosis”.
Take `O=c1c(O)c(-c2ccc(O)c(O)c2)oc2cc(O)cc(O)c12` [quercetin]: the “induction of apoptosis compared to control” value in the assay on MeWo [3] is “no significant induction of apoptosis”. Besides, the apoptotic cells is 10.5±0.7% with WM164 [4] (WM164, quercetin alone at 25 μM) and 19.1±1.6% in the assay with WM164 [4] (WM164, quercetin alone at 50 μM). Also, the “PARP cleavage or activation of pro-apoptotic proteins” value in the assay with MeWo [5] is “no PARP cleavage or activation of any pro-apoptotic proteins”. Moreover, in the assay with WM164 [6], the “PARP cleavage or protein activation” value is “did not reveal any PARP cleavage or protein activation”. Further, the “DR4 membrane expression, fold increase relative to control” value in the assay on DR4 [7] (MeWo, quercetin 25 μM) is “over four-fold”; with DR4 [7] (MeWo, quercetin 50 μM), “over 11 fold”; in the assay with DR4 [7] (WM164, quercetin 25 μM), “nearly five-fold”; in the assay on DR4 [7] (WM164, quercetin 50 μM) it was “seven-fold”. Also, the “DR5 membrane expression upregulation” value in the assay on DR5 [8] (MeWo, quercetin 25 and 50 μM) is on record as “this did not occur”. The “DR5 membrane expression, fold increase relative to control” value was “quarter-fold increase” in the assay on DR5 [8] (WM164, quercetin 25 μM) and “half-fold increase” in the assay with DR5 [8] (WM164, quercetin 50 μM). The “total DR4 protein expression” value with DR4 [9] (setting [15]) and in the assay on DR4 [9] (setting [16]) was “no change” throughout. For the same compound, the “DR4 mRNA message” value in the assay on DR4 [10] (setting [15]) and with DR4 [10] (setting [16]) was “no change” each time. Moreover, the “total DR5 protein expression” value in the assay with DR5 [11] (setting [15]) is recorded as “no change”. For the same compound, in the assay on DR5 [11] (setting [16]), the “total DR5 protein” value is reported as “dose-dependent upregulation”. The “DR5 mRNA” value is on record as “no change” with DR5 [12] (setting [15]) and “dose-dependent upregulation” with DR5 [12] (setting [16]). The “cytoplasmic levels of DR4” value is reported as “decreased” in the assay with DR4 [13] (MeWo, application of quercetin) and “decreased” with DR4 [13] (WM164, application of quercetin). The “protein expression of FLIP” value is “dose-dependently downregulate” with FLIP [1] (MeWo, quercetin) and “dose-dependently downregulate” with FLIP [1] (WM164, quercetin). Moreover, the “FLIP mRNA transcript signal” value is “no change” with FLIP [14] (MeWo, quercetin) and “no change” with FLIP [14] (WM164, quercetin).

(Values after US11360077B2, “Death receptors as markers for rhTRAIL-sensitivity” (Cleveland State University, priority 2017, dated 2022).)
